B1: IL12: interleukin modulator, 50 ng/ml; Sigma Aldrich (protein, UniProt P29459 23-219; P29460 23-328, looked up)
Interleukin-12 subunit alpha: RNLPVATPDPGMFPCLHHSQNLLRAVSNMLQKARQTLEFYPCTSEEIDHEDITKDKTSTVEACLPLELTKNESCLNSRETSFITNGSCLASRKTSFMMALCLSSIYEDLKMYQVEFKTMNAKLLMDPKRQIFLDQNMLAVIDELMQALNFNSETVPQKSSLEEPDFYKTKIKLCILLHAFRIRAVTIDRVMSYLNAS
Interleukin-12 subunit beta: IWELKKDVYVVELDWYPDAPGEMVVLTCDTPEEDGITWTLDQSSEVLGSGKTLTIQVKEFGDAGQYTCHKGGEVLSHSLLLLHKKEDGIWSTDILKDQKEPKNKTFLRCEAKNYSGRFTCWWLTTISTDLTFSVKSSRGSSDPQGVTCGAATLSAERVRGDNKEYEYSVECQEDSACPAAEESLPIEVMVDAVHKLKYENYTSSFFIRDIIKPDPPKNLQLKPLKNSRQVEVSWEYPDTWSTPHSYFSLTFCVQVQGKSKREKKDRVFTDKTSATVICRKNASISVRAQDRYYSSSWSEWASVPCS
B2: TNFb: enhancer molecule, 50 ng/ml; Sigma Aldrich (protein, UniProt P01374 35-205, looked up)
Lymphotoxin-alpha: LPGVGLTPSAAQTARQHPKMHLAHSTLKPAAHLIGDPSKQNSLLWRANTDRAFLQDGFSLSNNSLLVPTSGIYFVYSQVVFSGKAYSPKATSSPLYLAHEVQLFSSQYPFHVPLLSSQKMVYPGLQEPWLHSMYHGAAFQLTQGDQLSTHTDGIPHLVLSPSTVFFGAFAL

How the values were obtained:
Format in all cases: cell-based, human
[1] = tested on: various NSCLC, HNSCC, breast cancer, melanoma, colorectal cancer, and pancreatic cancer cell lines; assay: PD-L1 western blot after modulators, summary over all samples; conditions: depending on the sample, summary of Table 3
Excerpt: (§1) Cell lines were acquired from ATCC, Sigma, or DSMZ. Human non-small cell lung carcinoma (NSCLC) cell lines H292 (ATCC no. CRL-1848.), H1299 (ATCC no. CRL-5803), H520 (ATCC no. CRL-5811), CALU6 (ATCC no. HTB-56), H1975 (ATCC no. CRL-5908), H460 (ATCC no. HTB-177), H2126 (ATCC no. CCL-256), H1650 (ATCC no. CRL-5883), and H2087 (ATCC no. CRL-5922) were used for this experiment along with head and neck squamous cell carcinoma (HNSCC) cell lines BHY (DSMZ ACC 404), CAL27 (ATCC no. CRL-2095), KYSE410 (Sigma), and A253 (ATCC no. HTB-41), melanoma cell lines A375 (ATCC no. CRL-1619), COL0853 (Sigma), and MM127 (Sigma) pancreatic cancer cell lines BXPC3 (ATCC no. CRL-1687), colorectal cancer cell lines […], HCT116 (ATCC no. CCL-247EMT), and breast cancer cell lines BT549 (ATCC no. HTB-122), BT20 (ATCC no. HTB-19), and T47D (ATCC no. HTB-133). Cells were maintained in manufacturer-recommended conditions at 37° C. inside humidified 5% CO2 incubators. Sub-cultivation and harvesting for all cell lines were performed using Accutase (GIBCO Life Technologies; cat. no. A1110501) at 37° C. for 10 minutes. Cell viability was measured using trypan blue exclusion staining in conjunction with the Countess II Automated Cell Counter (Thermo Fischer Scientific; cat. no. AMQAX1000). Measurements were made in duplicate and the average number of viable cells was recorded prior to experiments.
(§2) T7039), and IL-10 (50 ng/ml; Sigma Aldrich cat. no. SRP3071) were administered to cell lines for various times including 30 minutes, 3 hour, and 24 hour time intervals prior to cell lysis and protein extraction.
(§3) To determine the effects of the aforementioned molecules on the modulation of PD-L1, we selected various NSCLC, HNSCC, breast cancer, melanoma, colorectal cancer, and pancreatic cancer cell lines as examples. Other diseases or cell lines could be used readily as could more complex samples such as cells isolated from xenografts and clinical samples. Cells were plated, for three different time points (30 minutes, 3 hours, and 24 hours), inside 6-well petri dishes with 2 mL of appropriate medium. Plates were incubated for 24 hours in 5% CO2 incubators at 37° C. After 24 hours, each 6-well plate was washed with PBS (Gibco Life Technologies, cat. no. 10010023) followed by fresh media being added along with each cell line's vehicle control or appropriate modulator for each specific time point, and were placed in CO2 incubators until their modulation time point was reached. Other conditions can be readily used, such as processing on automated systems such as SnapPath. At the end of each time point, while keeping plates on ice, cell lysis was conducted by aspirating culture medium from each plate, washing of each plate three times with 5 ml of cold PBS (Gibco Life Technologies, cat. no. 10010023) and culminated with the addition of cold 1× lysis buffer containing (Cell Signaling, cat. no. 9803 S) protease inhibitor cocktail (Cell Signaling, cat. no. 5871S), phosphatase inhibitor cocktail (Cell Signaling, cat. no. 5870S), and PMSF (Fisher Scientific, cat. no. ICN19538101). Plates were then placed on ice for ten minutes, swirling each plate intermittently. Aliquots of protein lysates were prepared and then stored at −80° C. until protein quantification and Western blot analysis was to be conducted. The protein concentration of each lysate was analyzed by using the Pierce 660 Protein Assay Reagent (Thermo Fisher Scientific, cat. no. 22660) and testing of each sample was conducted in duplicate. Two μg of protein was then loaded per lane into 10% Midi-PROTEAN TGX Precast Gels (Bio Rad, cat. no. 5671034) along with Kaleidoscope Prestained Protein Standard (BioRad, cat. no. 1610375) which ran at 220V for 45 minutes. Proteins were transferred to mini-PVDF membranes (BioRad, cat. no. 1704156) in 3 minutes using the Trans-Blot Turbo Transfer System (BioRad, cat. no. 1704150EDU).

H2087 cells = assay: PD-L1 western blot after modulators (EM and MTAs); conditions: NSCLC H2087, 30 minutes, 3 hours, 24 hours
Excerpt: as §1
(§4) Enhancer Molecule and Therapies: IFNγ, (10 ng/ml; Sigma Aldrich, cat.no 11040596001), TNFα (10 ng/ml; BD Biosciences cat. no. 554618), Osimertinib (100 ng/ml; Selleckchem cat.no. S7297), Everolimus (100 ng/ml; Selleckchem cat.no S1120), GSK458 (10 ng/ml; Selleckchem cat. no. S2658), TNFb (50 ng/ml; Sigma Aldrich cat. no.), GSK795 (1,000 ng/ml; Selleckchem cat. no. S7492), IL-12 (50 ng/ml; Sigma Aldrich SRP3073), GM-CSF (50 ng/ml; Sigma Aldrich cat. no. G5035), IL-1a (1 ng/ml; Sigma Aldrich cat. no. 12778-), IL-6 (50 ng/ml; Sigma Aldrich), IL-17 (100 ng/ml; Sigma Aldrich cat. no. SRP3080), TGFb (1 ng/ml; Sigma Aldrich cat. no. T7039), and IL-10 (50 ng/ml; Sigma Aldrich cat. no. SRP3071) were administered to cell lines for various times including 30 minutes, 3 hour, and 24 hour time intervals prior to cell lysis and protein extraction.
as §3, with “The protein concentration of each lysate was analyzed by using the Pierce 660 Protein Assay Reagent (Thermo Fisher Scientific, cat. no. 22660) and testing of each sample was conducted in duplicate. Two μg of protein was then loaded per lane into 10% Midi-PROTEAN TGX Precast Gels (Bio Rad, cat. no. 5671034) along with Kaleidoscope Prestained Protein Standard (BioRad, cat. no. 1610375) which ran at 220V for 45 minutes. Proteins were transferred to mini-PVDF membranes (BioRad, cat. no. 1704156) in 3 minutes using the Trans-Blot Turbo Transfer System (BioRad, cat. no. 1704150EDU).” left out

H292 cells = assay: PD-L1 western blot after modulators (EM and MTAs); conditions: NSCLC H292, 30 minutes, 3 hours, 24 hours
Excerpt: as §1, §2, §3

KYSE410 cells = assay: PD-L1 western blot after modulators (EM and MTAs); conditions: Head and neck KYSE410, 30 minutes, 3 hours, 24 hours
Excerpt: as §1, §4
as §3, with “The protein concentration of each lysate was analyzed by using the Pierce 660 Protein Assay Reagent (Thermo Fisher Scientific, cat. no. 22660) and testing of each sample was conducted in duplicate. Two μg of protein was then loaded per lane into 10% Midi-PROTEAN TGX Precast Gels (Bio Rad, cat. no. 5671034) along with Kaleidoscope Prestained Protein Standard (BioRad, cat. no. 1610375) which ran at 220V for 45 minutes. Proteins were transferred to mini-PVDF membranes (BioRad, cat. no. 1704156) in 3 minutes using the Trans-Blot Turbo Transfer System (BioRad, cat. no. 1704150EDU).” left out

BHY cells = assay: PD-L1 western blot after modulators (EM and MTAs); conditions: Head and neck BHY, 30 minutes, 3 hours, 24 hours
Excerpt: as §1, §4
as §3, with “The protein concentration of each lysate was analyzed by using the Pierce 660 Protein Assay Reagent (Thermo Fisher Scientific, cat. no. 22660) and testing of each sample was conducted in duplicate. Two μg of protein was then loaded per lane into 10% Midi-PROTEAN TGX Precast Gels (Bio Rad, cat. no. 5671034) along with Kaleidoscope Prestained Protein Standard (BioRad, cat. no. 1610375) which ran at 220V for 45 minutes. Proteins were transferred to mini-PVDF membranes (BioRad, cat. no. 1704156) in 3 minutes using the Trans-Blot Turbo Transfer System (BioRad, cat. no. 1704150EDU).” left out

BT549 cells = assay: PD-L1 western blot after modulators (EM and MTAs); conditions: Breast BT549, 30 minutes, 3 hours, 24 hours
Excerpt: as §1, §2, §3

H1975 cells = assay: PD-L1 western blot after modulators (EM and MTAs); conditions: NSCLC H1975, 30 minutes, 3 hours, 24 hours
Excerpt: as §1, §4
as §3, with “The protein concentration of each lysate was analyzed by using the Pierce 660 Protein Assay Reagent (Thermo Fisher Scientific, cat. no. 22660) and testing of each sample was conducted in duplicate. Two μg of protein was then loaded per lane into 10% Midi-PROTEAN TGX Precast Gels (Bio Rad, cat. no. 5671034) along with Kaleidoscope Prestained Protein Standard (BioRad, cat. no. 1610375) which ran at 220V for 45 minutes. Proteins were transferred to mini-PVDF membranes (BioRad, cat. no. 1704156) in 3 minutes using the Trans-Blot Turbo Transfer System (BioRad, cat. no. 1704150EDU).” left out

CAL27 cells = assay: PD-L1 western blot after modulators (EM and MTAs); conditions: Head and neck CAL27, 30 minutes, 3 hours, 24 hours
Excerpt: as §1, §4
as §3, with “The protein concentration of each lysate was analyzed by using the Pierce 660 Protein Assay Reagent (Thermo Fisher Scientific, cat. no. 22660) and testing of each sample was conducted in duplicate. Two μg of protein was then loaded per lane into 10% Midi-PROTEAN TGX Precast Gels (Bio Rad, cat. no. 5671034) along with Kaleidoscope Prestained Protein Standard (BioRad, cat. no. 1610375) which ran at 220V for 45 minutes. Proteins were transferred to mini-PVDF membranes (BioRad, cat. no. 1704156) in 3 minutes using the Trans-Blot Turbo Transfer System (BioRad, cat. no. 1704150EDU).” left out

BT20 cells = assay: PD-L1 western blot after modulators (EM and MTAs); conditions: Breast BT20, 30 minutes, 3 hours, 24 hours
Excerpt: as §1, §4
as §3, with “The protein concentration of each lysate was analyzed by using the Pierce 660 Protein Assay Reagent (Thermo Fisher Scientific, cat. no. 22660) and testing of each sample was conducted in duplicate. Two μg of protein was then loaded per lane into 10% Midi-PROTEAN TGX Precast Gels (Bio Rad, cat. no. 5671034) along with Kaleidoscope Prestained Protein Standard (BioRad, cat. no. 1610375) which ran at 220V for 45 minutes. Proteins were transferred to mini-PVDF membranes (BioRad, cat. no. 1704156) in 3 minutes using the Trans-Blot Turbo Transfer System (BioRad, cat. no. 1704150EDU).” left out

BxPC3 cells = assay: PD-L1 western blot after modulators (EM and MTAs); conditions: Pancreatic BxPC3, 30 minutes, 3 hours, 24 hours
Excerpt: as §1, §4
as §3, with “The protein concentration of each lysate was analyzed by using the Pierce 660 Protein Assay Reagent (Thermo Fisher Scientific, cat. no. 22660) and testing of each sample was conducted in duplicate. Two μg of protein was then loaded per lane into 10% Midi-PROTEAN TGX Precast Gels (Bio Rad, cat. no. 5671034) along with Kaleidoscope Prestained Protein Standard (BioRad, cat. no. 1610375) which ran at 220V for 45 minutes. Proteins were transferred to mini-PVDF membranes (BioRad, cat. no. 1704156) in 3 minutes using the Trans-Blot Turbo Transfer System (BioRad, cat. no. 1704150EDU).” left out

H1650 cells = assay: PD-L1 western blot after modulators (EM and MTAs); conditions: NSCLC H1650, 30 minutes, 3 hours, 24 hours
Excerpt: as §1, §2, §3

Row | Molecule | regulation of PD-L1 across samples [1] | PD-L1 Response (H292 cells) | PD-L1 Response (H1975 cells) | other results
1 | GM-CSF: enhancer molecule, 50 ng/ml; Sigma Aldrich | only led to upregulation |  |  | PD-L1 Response (H2087 cells): Up
2 | C=CC(=O)Nc1cc(Nc2nccc(-c3cn(C)c4ccccc34)n2)c(OC)cc1N(C)CCN(C)C [Osimertinib, reference compound] | both up and down regulation | Down |  | PD-L1 Response (KYSE410 cells): Up; PD-L1 Response (BHY cells): Up
3 | TGFb: enhancer molecule, 1 ng/ml; Sigma Aldrich | only led to upregulation |  |  | 
4 | Cn1ncc(Cl)c1-c1cc(C(=O)N[C@H](CN)Cc2ccc(F)c(F)c2)oc1Cl [GSK795, reference compound] |  |  | Down | PD-L1 Response (BT549 cells): Up; PD-L1 Response (CAL27 cells): Up; PD-L1 Response (BHY cells): Up
5 | COc1ncc(-c2ccc3nccc(-c4ccnnc4)c3c2)cc1NS(=O)(=O)c1ccc(F)cc1F [GSK458, reference compound] | both up and down regulation | Down |  | PD-L1 Response (BT20 cells): Up; PD-L1 Response (BxPC3 cells): Up
6 | CO[C@H]1C[C@@H]2CC[C@@H](C)[C@@](O)(O2)C(=O)C(=O)N2CCCC[C@H]2C(=O)O[C@H]([C@H](C)C[C@@H]2CC[C@@H](OCCO)[C@H](OC)C2)CC(=O)[C@H](C)/C=C(\C)[C@@H](O)[C@@H](OC)C(=O)[C@H](C)C[C@H](C)/C=C/C=C/C=C/1C [everolimus, Everolimus] | both up and down regulation | Down |  | PD-L1 Response (BxPC3 cells): Up
7 | B1 |  |  | Down | 
8 | B2 | both up and down regulation |  | Up | PD-L1 Response (H1650 cells): Up; PD-L1 Response (H2087 cells): Down; PD-L1 Response (BT20 cells): Up
